In ChEMBL document CHEMBL1157539, “Thousands of chemical starting points for antimalarial lead identification” (Nature, 2010) one finds XC50 data, which are given here for 86 molecules.

The assay relates to Plasmodium falciparum. The assay is described as follows: GSK_TCMDC: Inhibition of Plasmodium falciparum 3D7 in whole erythrocytes, using parasite LDH activity as an index of growth. The format is functional, organism-based.

`COc1cc(F)c2ncc(Cl)c(CCN3CCC(NCc4cc5c(cn4)OCCO5)CC3)c2c1` had an XC50 (Plasmodium falciparum, 3D7) of 0.481 µM. `CN(CCN)Cc1cccc(-c2cccc(-c3nc4cc(C(F)(F)F)ccc4[nH]3)c2)c1` gave an XC50 (Plasmodium falciparum, 3D7) of 0.509 µM. The molecule `C[C@H](Cc1ccc(OCCCCCCOc2ccccc2)cc1)NC[C@H](O)c1cccc(Cl)c1` displayed an XC50 (Plasmodium falciparum, 3D7) of 0.0704 µM.

`O=C(C=Cc1ccc(Cl)c(Cl)c1)NCCCCCN1CCCC(CCCNC(=O)c2sc3ccccc3c2Cl)C1` (configuration not stated): under “Plasmodium falciparum, 3D7”, the XC50 came to 1.03 µM.

For `CC(O)C1CCCCN1C(=O)c1ccc(-c2ccc(-c3nc4ccccc4[nH]3)s2)cc1` (configuration not stated), the XC50 (Plasmodium falciparum, 3D7) came out at 0.966 µM. On the same count and under the same terms, to `N#Cc1cccc(NC(=O)c2cccc(S(=O)(=O)NC3CCN(CC4CCCCC4)C3)c2)c1` (configuration not stated) belongs 0.578 µM; to `CC(C)(C)OC(=O)NCc1ccc(Nc2nnc(-c3cccc(C(=O)NCCC(c4ccccc4)c4ccccc4)c3)o2)cc1`, 0.581 µM. The same measure, in the same setting: to `CC(=O)N(Cc1ccccc1-c1ccc(CNCCc2ccccc2)cc1)C1CCN(Cc2ccccc2)CC1` belongs 0.475 µM. In the case of `c1ccc(-c2n[nH]cc2Nc2ccnc3ccccc23)nc1`, where the note is “Plasmodium falciparum, 3D7”, the XC50 turned out to be 0.819 µM. Still for that read-out and setting: to `c1cc(CN2CCC(CCN3CCCCC3)CC2)cc(-c2cccc(-c3nc4ccccc4[nH]3)c2)c1` belongs 0.14 µM. Regarding `CNC(=N)c1ccc(NC(=O)c2ccc(C(=O)Nc3ccc(C(=N)NC)cc3)cc2)cc1`, the XC50 (Plasmodium falciparum, 3D7) was 0.0471 µM. Under “Plasmodium falciparum, 3D7”, `O=C(/C=C/c1ccc(Cl)c(Cl)c1)NCCCCCCN1CCN(C(=O)Nc2cc(F)cc(F)c2)CC1` returned an XC50 of 1.07 µM. Same read-out and setting: as for `COc1ccc(NC(=O)Nc2ccc(-c3cccc(-c4nc5ccccc5[nH]4)c3)cc2)cc1`, the figure is 0.764 µM; as for `Oc1ccc(CCCNc2nc(NCc3ccccc3-c3ccccc3)nc(N3CCNCC3)n2)cc1`, 0.713 µM; as for `CN1CCN(c2nsc3ccc(-c4ccc(NC(=O)Nc5cc(C(F)(F)F)ccc5F)cc4)cc23)CC1`, 0.245 µM. Same read-out and setting: as for `Cc1cc(NCC(C)C)c2[nH]nc(-c3ccccc3)c2n1`, the figure is 0.744 µM; as for `Cc1cccc2nc(-c3ccc(-c4ccc(NC(=O)Nc5ccc(Cl)cc5)cc4)s3)[nH]c12`, 0.152 µM. Still for that read-out and setting: to `Cc1[nH]c2cc(Cl)ccc2c1C1=CCN(CCCCC2(C)C(=O)Nc3ccccc32)CC1` (configuration not stated) belongs 0.333 µM; to `CC(C)(C)c1cc2cc(Nc3ccnc4cc(-c5nccs5)ccc34)ccc2[nH]1`, 0.441 µM. Consider `CCCN1CCN(c2cc(NCC)c3c4c(onc24)-c2ccccc2C3=O)CC1`, for which the XC50 (Plasmodium falciparum, 3D7) was found to be 1.06 µM. Same read-out and setting: to `CC(C)C(C)(C#N)NC(=O)CSc1nc2ccc([N+](=O)[O-])cc2s1` (configuration not stated) belongs 1.03 µM; to `Cc1[nH]c2ccccc2c1C1CCN(CCCCNC(=O)c2ccc(-c3ccc(C#N)cc3)cc2)CC1`, 0.704 µM; to `O=C(NC1CCN(Cc2ccccc2)CC1)c1ccc(-c2nc3cc(Cl)c(F)cc3[nH]2)cc1`, 0.245 µM. On the same count and under the same terms, to `O=C(Nc1ccc(-c2cccc(-c3nc4ccccc4[nH]3)c2)cc1)Nc1ccc(Cl)c(Cl)c1` belongs 0.459 µM; to `Cc1[nH]c(C)c(-c2ccc(Oc3cccc(Cl)c3)cc2)c(=O)c1Br`, 0.0342 µM; to `Cc1cc2ncn(-c3nccc(NCc4cccnc4)n3)c2cc1C`, 0.664 µM. On the same count and under the same terms, to `Cc1cc(Nc2cccc(Cl)c2)nc2ccc(NC(=O)c3ccc(=O)[nH]c3)cc12` belongs 0.995 µM; to `COc1cccc(-c2cnc(N)c(-c3nc4cc(Cl)c(F)cc4[nH]3)c2)c1`, 0.536 µM; to `CC(C)(C)c1cc(C(=O)N2CCN(c3ncccc3C(F)(F)F)CC2)n(Cc2ccccc2)n1`, 0.251 µM. Consider `CS(=O)(=O)Nc1ccc2[nH]cc(C3CC4CCC(C3)N4CC3CCC(NC(=O)/C=C/c4ccc(Cl)c(Cl)c4)CC3)c2c1` (configuration not stated), for which the XC50 (Plasmodium falciparum, 3D7) was 0.872 µM. The molecule `Cc1cccc(CCCNC(=O)CN(c2cccc(C(F)(F)F)c2)S(=O)(=O)c2ccc(C(F)(F)F)cc2)c1` came in with an XC50 (Plasmodium falciparum, 3D7) of 0.684 µM. Regarding `CC(C)CCN(Cc1cncn1Cc1cccc(C(F)(F)F)c1)C(=O)c1cncc(-c2ccccc2)c1`, the XC50 (Plasmodium falciparum, 3D7) was 0.774 µM. On the same count and under the same terms, as for `COC(=O)c1cc(OC2CCOC2=O)cc2c1OC(C)(C)O2` (configuration not stated), the figure is 0.806 µM; as for `N=c1n(CCN2CCCCC2)c2ccccc2n1CC(O)c1ccc(Cl)c(Cl)c1` (configuration not stated), 0.32 µM. The same measure, in the same setting: as for `CCN(CC)CCOC(=O)c1ccc(NC(=O)c2cn(-c3ccccc3)nc2-c2cccs2)cc1`, the figure is 0.379 µM. Still for that read-out and setting: to `O=c1cc(NCCCNCc2cc(Br)ccc2F)[nH]c2ccccc12` belongs 0.854 µM; to `C=CCOc1ccc(CNC2CCN(Cc3ccccc3)CC2)cc1Br`, 1.42 µM. `CC(C)NCc1ccc(-c2ccc(CN3CCCC(c4ccccc4)C3)cc2)c(C(=O)NC2Cc3ccccc3C2)c1` (configuration not stated) returned an XC50 (Plasmodium falciparum, 3D7) of 0.991 µM. `Cc1ccc(-n2c(Sc3ncnc4sccc34)nnc2N2CCCC2)cc1`: the XC50 (Plasmodium falciparum, 3D7) is 0.263 µM. Same read-out and setting: to `CCCc1cc(Cc2cnc(N)nc2N)cc(CCC)c1OC` belongs 0.893 µM.

For `CN1CCC(NCc2ccc(-c3ccc(Cl)cc3)cc2)CC1`, the XC50 (Plasmodium falciparum, 3D7) was found to be 0.75 µM.

For `COc1cccc(C(=O)C2CC2CN2CC=C(c3c(C)[nH]c4ccccc34)CC2)c1` (configuration not stated), the XC50 (Plasmodium falciparum, 3D7) is 0.71 µM. Turning to `COc1nc2c(CCN3CC[C@H](NCc4cc(C#N)c5c(c4)CCO5)[C@H](O)C3)ccnc2cc1F`, where the note is “Plasmodium falciparum, 3D7”, the XC50 came out at 0.35 µM. The same measure, in the same setting: to `COCCNCc1cccc(C#Cc2cc3ncnc(Nc4ccc(OCc5cccc(F)c5)c(Cl)c4)c3s2)n1` belongs 0.739 µM; to `Cc1nnsc1C(=O)Nc1ccc(-c2cccc(-c3nc4cc(C(F)(F)F)ccc4[nH]3)c2)cc1`, 0.838 µM; to `COC(C(=O)OCCC1CCCN1C)(c1ccccc1)c1ccccc1` (configuration not stated), 0.97 µM. Same read-out and setting: as for `O=C(Nc1ccccc1N1CCOCC1)c1ncoc1-c1ccccc1C(F)(F)F`, the figure is 1.06 µM; as for `CCCCCCn1c(Sc2ccc(C#N)c([N+](=O)[O-])c2)nnc1-c1cc(OC)cc(OC)c1`, 0.771 µM; as for `Cc1ccc(NC(=O)Nc2ccc(Br)cc2)cc1OCCN(C)C`, 0.975 µM. Still for that read-out and setting: to `COc1ccc(C2C(C(=O)OC3CCCC3)=C(C)NC3=C2C(=O)CCC3)cc1Br` (configuration not stated) belongs 0.593 µM. Turning to `CCc1ccc(N2C(=O)C3C(Cc4ccc(OC(C)(C)C)cc4)NC4(C(=O)N(Cc5ccccc5)c5ccc(F)cc54)C3C2=O)cc1` (configuration not stated), the XC50 (Plasmodium falciparum, 3D7) was 0.8 µM. Regarding `CCCCCN1CCC(NS(=O)(=O)c2ccc(C(=O)Nc3cccc(C(F)(F)F)c3)cc2)C1` (configuration not stated), the XC50 (Plasmodium falciparum, 3D7) amounted to 0.995 µM.

As for `CC(C)(C)c1ccc(-c2nc3c(ccc4nc(N)nc(N)c43)[nH]2)cc1`, for the setting “Plasmodium falciparum, 3D7”, the XC50 came to 0.158 µM. Same read-out and setting: to `N#Cc1ccc(-c2ccc3nc(N4CCCN(C5CCC5)CC4)ccc3c2)cc1` belongs 1.5 µM; to `COc1ccc(C(=O)NC(Nc2ccc([N+](=O)[O-])cc2)C(Cl)(Cl)Cl)cc1` (configuration not stated), 1.07 µM. Take `CNC(=N)c1ccc(NC(=O)Nc2ccc(C(=N)NC)cc2)cc1`: the XC50 (Plasmodium falciparum, 3D7) came out at 0.577 µM.

Consider `O=C(Nc1cc(C(F)(F)F)cc(C(F)(F)F)c1)NC1CCC(CN2CCC(c3c[nH]c4ccccc34)CC2)CC1` (configuration not stated), for which the XC50 is 0.461 µM. Also, the XC50 (Plasmodium falciparum, 3D7) was found to be 0.81 µM. For the setting “Plasmodium falciparum, 3D7”, `O=C(Cc1cccc(Cl)c1)Nc1ccc(N2CCC(NCc3ccc4ncccc4c3)CC2)cc1` displayed an XC50 of 1.23 µM. On the same count and under the same terms, as for `Cc1ccc(-c2nnc3c4ccccc4c(C)nn23)cc1S(=O)(=O)N1CCN(CCO)CC1`, the figure is 0.669 µM; as for `CN(CCN)Cc1ccc(-c2ccc(-c3nc4cc(F)ccc4[nH]3)s2)cc1`, 1.07 µM.

Turning to `OC(c1cccc(OCc2ccccc2)c1)C1CN(CCc2ccccc2)CCC1(O)c1ccccc1` (configuration not stated), the XC50 (Plasmodium falciparum, 3D7) worked out at 0.218 µM. The same measure, in the same setting: to `CN1CCC[C@H]1COc1ccc(CN2CC[C@H](NC(=O)c3ccc(Cl)c(Cl)c3)C2)cc1Br` belongs 0.983 µM; to `CC(C)CSc1cc(C(=O)Nc2cc(Cl)ccc2O)ccn1`, 0.67 µM; to `CC(=O)Nc1ccc(OCCCCN(Cc2ccccc2C(F)(F)F)c2ccc(C#N)c(C(F)(F)F)c2)cc1`, 1.39 µM. Still for that read-out and setting: as for `Cc1cc(NC(=O)Nc2ccc(Cl)cc2F)c2ccccc2n1`, the figure is 0.547 µM; as for `CN(C)Cc1ccc(-c2cccc(NC(=O)c3ccc(Cl)cc3)c2)cc1`, 0.9 µM. The same measure, in the same setting: to `COc1ccc(CCNCCCCCCNCCCc2ccc(Cl)cc2)cc1OC` belongs 0.951 µM. Regarding `O=C(NC1CC1)c1cnc(N2CCC(c3ccccc3)CC2)c(Cl)c1`, the XC50 (Plasmodium falciparum, 3D7) was 0.851 µM. Still for that read-out and setting: as for `CC(=O)Nc1nc(C(=O)Nc2cccc(-c3cccc(-c4nc5cccc(C)c5[nH]4)c3)c2)cs1`, the figure is 0.115 µM; as for `Cc1cc(C(F)(F)F)n2nc(C(=O)N(Cc3cncn3Cc3cccc(F)c3)CC3CC3)cc2n1`, 0.742 µM; as for `CCCN(CCC)C(=O)c1cc(C(=O)N[C@@H](Cc2ccccc2)[C@H](O)CNCc2cccc(OC)c2)cc(N2CCCCS2(=O)=O)c1`, 0.549 µM. Same read-out and setting: as for `COc1cc2c(cc1NC(=O)CN1CCN(C(=O)c3ccco3)CC1)oc1ccccc12`, the figure is 0.422 µM. Still for that read-out and setting: to `O=C(c1cccc(Br)c1)N1CCN(c2ccc([N+](=O)[O-])c(NC3CC3)c2)CC1` belongs 0.936 µM. Under “Plasmodium falciparum, 3D7”, `O=C(Nc1ccc(I)cc1)Nc1ccc(Cn2ncc(N3CCCNCC3)c(Cl)c2=O)cc1` yielded an XC50 of 1.12 µM. On the same count and under the same terms, as for `Cc1cccc(-c2nc3[nH]c(=O)cc(NC(=O)C(C)C)n3n2)c1`, the figure is 0.421 µM. In the case of `Cc1ccc(C)c2sc(N(CCCn3ccnc3)C(=O)C=Cc3cccs3)nc12`, the XC50 (Plasmodium falciparum, 3D7) came out at 1.06 µM.

As for `CC(CNC(=O)c1cc2c(Cl)cc(Cl)cc2[nH]1)CNc1cc(=O)c2ccccc2[nH]1` (configuration not stated), where the note is “Plasmodium falciparum, 3D7”, the XC50 was found to be 0.715 µM.

As to `O=[N+]([O-])c1ccc(-n2nc(Cc3ccccc3)n(Cc3cccc(F)c3)c2=S)c(C(F)(F)F)c1`, the XC50 (Plasmodium falciparum, 3D7) amounted to 0.769 µM. Where the note is “Plasmodium falciparum, 3D7”, `Cc1cccc(C)c1CNc1ccnc2cc(C#N)ccc12` had an XC50 of 0.684 µM.

Regarding `Cc1cc(NCCCCCCN)nc(Nc2ccc(Cl)cc2)n1`, the XC50 (Plasmodium falciparum, 3D7) turned out to be 0.448 µM. On the same count and under the same terms, to `CCN(CC)CCNC(=O)/C(=C/C=C/c1cc2cc(Cl)c(Cl)cc2[nH]1)OC` belongs 0.927 µM; to `CC(=O)N/N=C/[C@H](CCc1ccccc1)NC(=O)[C@H](CC(C)C)NC(=O)c1cccc(OCCN2CCOCC2)c1`, 0.236 µM.

`NCC1CCCN1Cc1cccc(-c2ccc(-c3nc4ccccc4[nH]3)s2)c1` (configuration not stated) showed an XC50 (Plasmodium falciparum, 3D7) of 1.04 µM. On the same count and under the same terms, to `CCCCN(CCCC)/C(=N/c1cccc(Cl)c1Cl)Nc1ccc(C#N)cc1O` belongs 0.853 µM. In turn, `COc1cccc(-c2nn(C)c3sc(C(=O)Nc4cccnc4)cc23)c1` displayed an XC50 (Plasmodium falciparum, 3D7) of 0.948 µM. Same read-out and setting: as for `CC(C)NCc1cccc(-c2cccc(NC(=O)c3cccc(Cl)c3)c2)c1`, the figure is 0.592 µM.
